The values below come from US8993585B2, “Cyclic amine substituted pyrimidinediamines as PKC inhibitors” (Rigel Pharmaceuticals, Inc., priority 2007, dated 2015).

The structures appear in SMILES notation.

In the first experiment the test system is Human primary T cells. In words: IL-2 ELISA, Human Primary T Cell, Anti-CD3+CD28+ (Example 3). As to conditions: Homo sapiens, T-cell, 24 h, anti-CD3+CD28 stimulation. It counts as cell-based. The method, then: Human primary T cell isolation and culture: Human primary T cells were prepared as follows. […] The cells at the serum:ficoll interface were recovered and washed twice with 5 volumes of PBS. […] The primary T-cells were then washed twice with PBS to remove the IL-2.
Primary T cell stimulation and IL2 ELISA: Human primary T cells (100,000 cells per well) were pre-incubated with or without test compound in Yssel's medium for 1 hr at 37° C. Cells were then stimulated by transferring them to round-bottom 96-well plates pre-coated with 1 ug/ml αCD3 and 5 μg/ml αCD28. For counter assay, cells were instead stimulated by adding 8× stock solutions of PMA and ionomycin in Yssels (for final concentrations of 0.5 ng/ml PMA and 0.1 uM ionomycin, both from Calbiochem).
In general terms: In an ELISA, binding on a coated surface is turned into a signal by an enzyme label.
For orientation: IC50 means the concentration that inhibits the measured activity by half. `COc1cc(O)cc(Nc2ncc(F)c(NC3CC(C)(C)N(C)C(C)(C)C3)n2)c1` [Compound I-436] showed an IC50 of 600 nM. In other words, the sub-micromolar range. `CCN1CCc2cc(Nc3ncc(F)c(NC4CC(C)(C)N(C)C(C)(C)C4)n3)ccc21` [II-52] yielded a 50% inhibitory concentration (IC50) of 5610 nM. On the same count and under the same terms, in the case of `COc1cc(Nc2ncc(F)c(NC3CC(C)(C)NC(C)(C)C3)n2)cc(OCCN2CCCC2)c1` [Compound I-435] it was 550 nM; in that of `COC(=O)CCN1C(C)(C)CC(Nc2nc(Nc3ccc4c(c3)OCCO4)ncc2F)CC1(C)C` [II-10], 7240 nM.

Turning to `Cc1ccc(C)n1-c1cc(Nc2ncc(F)c(NC3CC(C)(C)N(C)C(C)(C)C3)n2)ccc1OCCN1CCOCC1` [Compound I-439], the IC50 worked out at 620 nM. With `Cc1ccc(Nc2ncc(F)c(N(Cc3ccc(-c4ccccc4)cc3)C3CC(C)(C)N(C)C(C)(C)C3)n2)cc1C#N` [Compound I-318], the midpoint of inhibition, the IC50, lay at 2510 nM.

`CN1C(C)(C)CC(Nc2nc(Nc3nc(-c4cccnc4)cs3)ncc2F)CC1(C)C` [II-136] registered a concentration for half-maximal inhibition (IC50) of 910 nM. This IC50 is about 2.8-fold lower than that of the molecule before. Same read-out and setting: in the case of `CN1C(C)(C)CC(N(Cc2ccccc2)c2nc(Nc3ccc(N4CCOCC4)c(C(F)(F)F)c3)ncc2F)CC1(C)C` [Compound I-312] it was 1690 nM; in that of `CN1C(C)(C)CC(Nc2nc(Nc3ccc4c(c3)CC(=O)NO4)ncc2F)CC1(C)C` [II-3], 1850 nM; in that of `CN1C(C)(C)CC(Nc2nc(Nc3cnc4c(c3)OC(F)(F)C(=O)N4)ncc2F)CC1(C)C` [II-25], 2070 nM. On to `COc1ccc(Nc2ncc(F)c(NC3CC(C)(C)N(CCC(=O)O)C(C)(C)C3)n2)cc1Cl` [Compound I-303], for which the IC50 was determined as 17700 nM.

`Cc1ccc(Nc2ncc(F)c(N(Cc3ccccc3)C3CC(C)(C)N(C)C(C)(C)C3)n2)cc1C#N` [Compound I-313] yielded an IC50 of 793 nM. On the same count and under the same terms, in the case of `COC(=O)CCN1C(C)(C)CC(Nc2nc(Nc3cc(OC)cc(OC)c3)ncc2F)CC1(C)C` [Compound I-292] it was 2480 nM; in that of `CN1C(C)(C)CC(Nc2nc(Nc3ccc(-c4ccc(N5CCOCC5)nc4)c(C#N)c3)ncc2F)CC1(C)C` [Compound I-427], 660 nM. Take `CC1(C)CC(Nc2nc(Nc3ccc4c(c3)oc(=O)n4CCN3CCOCC3)ncc2C#N)CC(C)(C)N1` [II-170]: the IC50 came to 15800 nM. This IC50 lies about 24-fold higher than the previous one. The molecule `CCN(CC)C1CCC(Nc2nc(Nc3cccc(C#N)c3)ncc2F)CC1` (centres unmarked) [IV-6, N2-(3-Cyano)phenyl-N4-(4-diethylamino)cyclohexyl-5-fluoro-2,4-pyrimidinediamine] returned an IC50 of 4510 nM. For `CN1C(C)(C)CC(Nc2nc(Nc3cccc(OC(F)(F)F)c3)ncc2C(F)(F)F)CC1(C)C` [Compound I-242], the IC50 came out at 8190 nM. With `Cc1ccc(Nc2ncc(F)c(N(Cc3ccc4ccccc4n3)C3CC(C)(C)N(C)C(C)(C)C3)n2)cc1C#N` [Compound I-320], the 50% inhibitory concentration (IC50) was 6140 nM. The IC50 values of the last two molecules are within 1.5-fold of each other.

`CN(C)CCN1C(=O)C(C)(C)Oc2cc(Nc3ncc(F)c(NC4CC(C)(C)N(C)C(C)(C)C4)n3)ccc21` [II-49] returned an IC50 of 1240 nM.

As to `CN1C(=O)c2ccc(Nc3ncc(F)c(NC4CC(C)(C)NC(C)(C)C4)n3)cc2C1=O` [II-153], the IC50 was 1800 nM. The IC50 values of the last two molecules are within 1.5-fold of each other. Molecule `CCN1C(=O)COc2cc(Nc3ncc(C#N)c(NC4CC(C)(C)N(C)C(C)(C)C4)n3)ccc21` [II-71] registered an IC50 of 145 nM. `CCOc1ccc2nc(Nc3ncc(F)c(NC4CC(C)(C)N(C)C(C)(C)C4)n3)sc2c1` [II-18]: the IC50 turned out to be 2120 nM.

Staying with this experiment, now noted: anti-CD3+CD28 stimulation, 24 hours.
With `COc1ccc(Nc2ncc(Br)c(NC3CC(C)(C)N(C)C(C)(C)C3)n2)cc1OC` [Compound I-274], the IC50 worked out at 1210 nM.

As for `CN(c1nc(Nc2cccc(C#N)c2)ncc1F)C1CC(C)(C)N(C)C(C)(C)C1` [Compound I-66], half-maximal inhibition (IC50) was put at 1460 nM.

As for `CC(=O)N1C(C)(C)CC(Nc2nc(Nc3ccc(N4CCN(C)CC4)c(C(F)(F)F)c3)ncc2F)CC1(C)C` [Compound I-219], half-maximal inhibition (IC50) was put at 20800 nM. In the case of `COc1cc(Nc2ncc(F)c(NC3CC(C)(C)N(C)C(C)(C)C3)n2)ccc1NC(=O)c1ccco1` [Compound I-353], the IC50 was determined as 1540 nM. The molecule `Cc1cc(Nc2ncc(F)c(NC3CC(C)(C)N(C)C(C)(C)C3)n2)ccc1-n1cnnn1` [Compound I-397] showed an IC50 of 1980 nM. On to `COc1cc(Nc2ncc(F)c(NC3CCN(Cc4ccncc4)CC3)n2)cc(-n2nnnc2C)c1` [III-10, 5-fluoro-N2-[3-methoxy-5-(5-methyl-1H-tetrazol-1-yl)]phenyl-N4-[1-(pyridin-4-yl)methylpiperidin-4-yl]-2,4-pyrimidinediamine], for which the half-inhibitory concentration (IC50) amounted to 2220 nM. Same read-out and setting: for `COc1ccc(Nc2ncc(F)c(NC3CCC(C)(C)N(C)C(C)(C)C3)n2)cc1Cl` (centres unmarked) [Compound I-262, 5-Fluoro-N2-[3-chloro-4-methoxy]phenyl-N4-(1,2,2,7,7-pentamethylazepan-4-yl)-2,4-pyrimidinediamine] the value was 14800 nM; for `COc1ccc(Nc2ncc(C)c(NC3CC(C)(C)N(C)C(C)(C)C3)n2)cc1Cl` [Compound I-27], 497 nM; for `CCNC(=O)Nc1cccc(Nc2ncc(F)c(NC3CC(C)(C)N(C)C(C)(C)C3)n2)c1` [Compound I-138], 3150 nM. `COc1ccc(Nc2nccc(NC3CC(C)(C)N(C)C(C)(C)C3)n2)cc1Cl` [Compound I-226] gave an IC50 of 1140 nM. `CN1C(C)(C)CC(Nc2nc(Nc3ccc(N4CCN(S(C)(=O)=O)CC4)c(C(F)(F)F)c3)ncc2C(N)=O)CC1(C)C` [Compound I-90] yielded an IC50 of 2860 nM. On the same count and under the same terms, in the case of `CCN1C(=O)C(C)(C)S(=O)(=O)c2cc(Nc3ncc(F)c(NC4CC(C)(C)N(C)C(C)(C)C4)n3)ccc21` [II-66] it was 695 nM; in that of `COc1ccc(Nc2ncc(F)c(NC3CC(C)(C)N(C)C(C)(C)C3)n2)cc1-c1ccncc1` [Compound I-193], 653 nM. Still for that read-out and setting: for `CN1C(C)(C)CC(Nc2nc(Nc3ccc(F)c(-c4cnn(C)c4)c3)ncc2F)CC1(C)C` [Compound I-182] the value was 675 nM; for `Cc1nccc(-c2cccc(Nc3ncc(F)c(NC4CC(C)(C)N(C)C(C)(C)C4)n3)c2)n1` [Compound I-69], 2390 nM; for `CN1C(C)(C)CC(Nc2nc(Nc3cc(F)c(F)c(F)c3)ncc2F)CC1(C)C` [Compound I-347], 617 nM. For the molecule `CN1C(=O)C2(CCC2)Oc2cc(Nc3ncc(F)c(NC4CC(C)(C)N(C)C(C)(C)C4)n3)ccc21` [II-68], inhibition was half-maximal at 261 nM (IC50). Turning to `CSc1nnnn1-c1cccc(Nc2ncc(F)c(NC3CC(C)(C)N(C)C(C)(C)C3)n2)c1` [Compound I-399], it took 50 nM to reach half-maximal inhibition (IC50). Against the preceding molecule, the IC50 is about 5.2-fold lower. In turn, `Cc1cc(C)cc(Nc2ncc(C)c(NC3CC(C)(C)N(C)C(C)(C)C3)n2)c1` [Compound I-17] registered a 50% inhibitory concentration (IC50) of 963 nM. `COc1ccc(Nc2ncc(F)c(NC3CCN(C)CC3)n2)cc1Cl` [III-1, N2-(3-Chloro-4-methoxy)phenyl-5-fluoro-N4-(1-methylpiperidin-4-yl)-2,4-pyrimidinediamine] had an IC50 of 2380 nM. With `CN1CCN(c2cc(Nc3ncc(F)c(NC4CC(C)(C)N(C)C(C)(C)C4)n3)ccc2Cl)CC1` [Compound I-65], the IC50 came out at 1980 nM.

`CNC(=O)c1cc(Nc2ncc(F)c(NC3CC(C)(C)N(C)C(C)(C)C3)n2)ccc1N1CCN(C)CC1` [Compound I-54] registered an IC50 of 3060 nM. On the same count and under the same terms, for `CCCN1CCN(c2cc(Nc3ncc(F)c(NC4CC(C)(C)N(C)C(C)(C)C4)n3)ccc2Cl)CC1` [Compound I-56] the value was 2380 nM; for `CCNC(=O)Nc1ccc(Nc2ncc(F)c(NC3CC(C)(C)N(C)C(C)(C)C3)n2)cc1` [Compound I-149], 4360 nM. Take `COCCOc1cc(Nc2ncc(F)c(NC3CC(C)(C)NC(C)(C)C3)n2)cc(OCCOC)c1` [Compound I-394]: inhibition was half-maximal at 2960 nM (IC50). With `CN1C(C)(C)CC(Nc2nc(Nc3cnc(N4CCN(S(C)(=O)=O)CC4)c(Cl)c3)ncc2F)CC1(C)C` [Compound I-289], the IC50 was determined as 424 nM. Regarding `Cc1cnc(Nc2ccc(N3CCN(C)CC3)c(Cl)c2)nc1NC1CC(C)(C)N(C)C(C)(C)C1` [Compound I-29], the IC50 was determined as 463 nM. Consider `CN1C(C)(C)CC(Nc2nc(Nc3ccc(C#N)c(C(F)(F)F)c3)ncc2F)CC1(C)C` [Compound I-152], for which the IC50 is 604 nM.

Consider `CN1CCC(c2ccc(Nc3ncc(F)c(NC4CC(C)(C)N(C)C(C)(C)C4)n3)cc2)CC1` [Compound I-221], for which the IC50 is 1270 nM. Regarding `COc1cc(C)c(Nc2ncc(F)c(NC3CC(C)(C)N(C)C(C)(C)C3)n2)cc1OC` [Compound I-380], it took 19500 nM to reach half-maximal inhibition (IC50).

In turn, `CN1C(C)(C)CC(Nc2nc(Nc3ccc(N4CCNCC4)c(C(F)(F)F)c3)ncc2[N+](=O)[O-])CC1(C)C` [Compound I-75] had an IC50 of 11300 nM. The molecule `CN1C(C)(C)CC(Nc2nc(Nc3ccc(N4CCC(F)(F)CC4)c(F)c3)ncc2F)CC1(C)C` [Compound I-51] showed an IC50 of 1010 nM. This IC50 lies about 11-fold lower than the previous one. On the same count and under the same terms, for `CN1C(C)(C)CC(Nc2nc(Nc3ccc(N4CCOCC4)c(C(F)(F)F)c3)ncc2F)C1(C)C` (centres unmarked) [Compound I-287, 5-Fluoro-N2-[4-morpholino-3-(trifluoromethyl)]phenyl-N4-(1,2,2,5,5-pentamethylpyrrolidin-3-yl)-2,4-pyrimidinediamine] the value was 2190 nM; for `CN1C(C)(C)CC(Nc2nc(Nc3cccc(C#N)c3)ncc2[N+](=O)[O-])CC1(C)C` [Compound I-72], 992 nM. `CN1C(C)(C)CC(Nc2nc(Nc3ccc(NC(=O)c4ccco4)c(Cl)c3)ncc2Cl)CC1(C)C` [Compound I-351] came in with an IC50 of 198 nM. As to `CN1C(C)(C)CC(Nc2nc(Nc3ccc(NC(=O)c4ccco4)c(C(F)(F)F)c3)ncc2F)CC1(C)C` [Compound I-355], the IC50 is 893 nM. `COc1ccc(Nc2ncc(C(F)(F)F)c(NC3CC(C)(C)N(C)C(C)(C)C3)n2)cc1Cl` [Compound I-32] had an IC50 of 328 nM.
